Results on 2 molecules are retold here after US20250032525A1 (priority 2021, published 2025).

For one series, the system named is MES-SA/Dx5 xenografts. Description: MES-SA/Dx5 xenograft tumors in mice. Format: in vivo, NSG mice. The following applies: multidrug resistant MES-SA/Dx5 tumors; DOX 2 mg/kg iv., LiPyDau 0.5 mg/kg iv. once per week. How it is done:
2×10^6 cells from each cell line in 200 μl serum-free culture media DMEM were inoculated into NOD.Cg-Prkdc^scid Il2rg^tm1Wjl/SzJ (NSG) mice subcutaneously in the left flank and treatment was initiated when tumors reached 200 mm^3. Mice were treated with saline (n=3 per each cell lines). […] The size of the tumors was measured every second day with a digital caliper.

Series [1] deals with patient-derived lung adenocarcinoma xenografts. The series can be described thus: Patient-derived xenograft (PDX) model. As to conditions: single treatment; LiPyDau 0.5 mg/kg, DOX 2 mg/kg, paclitaxel 12 mg/kg; 7 days. Format: in vivo, NSG mice. For orientation: A xenograft is tissue or cells of one species grown in another, often human tumour cells in immunodeficient mice.
Description: A piece from the tumor tissue was transplanted subcutaneously into the right flank and propagated in NOD.Cg-Prkdc^scid Il2rg^tm1Wjl/SzJ (NSG) mice for 7 months. After the xenografted tumor reached 1000 mm^3, tumor pieces were retransplanted subcutaneously into the right flank of 20 additional NSG mice, which were given a single treatment with various chemotherapeutics or LiPyDau. Every treatment group consists of 5 animals. After daily monitoring of the tumor volume for one week, the mice were sacrificed and the cytotoxicity of the treatments was investigated on tissue slices by image analysis.
For treatment, tumor pieces were engrafted subcutaneously.
For series [2], the system named is SK-MEL-2. The following applies: SK-MEL-2, NCI-60 database, sulforhodamine B; read-out: Cytotoxic IC50; cited from earlier work.
A further series deals with HCT-15. As to conditions: HCT-15, NCI-60 database, sulforhodamine B; read-out: Cytotoxic IC50; cited from earlier work.
In series [3] the test system is DU-145. The following applies: DU-145, NCI-60 database, sulforhodamine B; read-out: Cytotoxic IC50; cited from earlier work.
In a further series the test system is MCF7. As to conditions: MCF7, NCI-60 database, sulforhodamine B; read-out: Cytotoxic IC50; cited from earlier work.
Another series deals with HS 578T. The following applies: NCI-60 database, sulforhodamine B, read-out: Cytotoxic IC50; cited from earlier work.
In a further series the test system is A498. The series can be described thus: In vitro cytotoxicity (PrestoBlue). Format: cell-based. The following applies: Homo sapiens, A498, 72 h; read-out: Cytotoxic IC50. An excerpt:
(§1) Experiments were repeated at least 3 times.

The next series concerns Bx-PC-3. Description: In vitro cytotoxicity (PrestoBlue). Type of series: cell-based. As to conditions: Homo sapiens, BXPC-3; Bx-PC-3, 72 h; read-out: Cytotoxic IC50.
Description: as §1

For a further series, the system named is CCRF-CEM. Description: In vitro cytotoxicity (PrestoBlue). Type of series: cell-based. The following applies: Homo sapiens, 72 h, read-out: Cytotoxic IC50.
Description: as §1

Series [4] relates to DU-145. Description: In vitro cytotoxicity (PrestoBlue). Type of series: cell-based. As to conditions: Homo sapiens, DU-145, 72 h; read-out: Cytotoxic IC50.
Description: as §1

The next series concerns HCC-2998. Description: In vitro cytotoxicity (PrestoBlue). Type of series: cell-based. The following applies: Homo sapiens; HCC-2998, 72 h; read-out: Cytotoxic IC50.
Description: as §1

Another series relates to HCT-116. Description: In vitro cytotoxicity (PrestoBlue). The following applies: Homo sapiens, HCT-116, 72 h; read-out: Cytotoxic IC50. Type of series: cell-based.
Description: as §1

Another series concerns HL-60(TB). The series can be described thus: In vitro cytotoxicity (PrestoBlue). Type of series: cell-based. The following applies: Homo sapiens, 72 h, read-out: Cytotoxic IC50.
Description: as §1

The next series deals with HOP-62. The series can be described thus: In vitro cytotoxicity (PrestoBlue). The following applies: Homo sapiens, HOP-62, 72 h; read-out: Cytotoxic IC50. Type of series: cell-based.
Description: as §1

The test system of the next series is KM12. Description: In vitro cytotoxicity (PrestoBlue). Format: cell-based. As to conditions: Homo sapiens, KM12, 72 h; read-out: Cytotoxic IC50.
Description: as §1

The next series deals with MALME-3M. Description: In vitro cytotoxicity (PrestoBlue). Format: cell-based. The following applies: Homo sapiens, 72 h, read-out: Cytotoxic IC50.
Description: as §1

The subject of a further series is MDA-MB-435. The series can be described thus: In vitro cytotoxicity (PrestoBlue). The following applies: Homo sapiens, MDA-MB-435, 72 h; read-out: Cytotoxic IC50. Type of series: cell-based.
Description: as §1

In another series the test system is NCI-H522. Description: In vitro cytotoxicity (PrestoBlue). As to conditions: Homo sapiens, NCI-H522, 72 h; read-out: Cytotoxic IC50. Type of series: cell-based.
Description: as §1

In another series the test system is NCI/ADR-RES. Description: In vitro cytotoxicity (PrestoBlue). Format: cell-based. The following applies: Homo sapiens, 72 h, read-out: Cytotoxic IC50.
Description: as §1

A further series relates to OVCAR-5. Description: In vitro cytotoxicity (PrestoBlue). Format: cell-based. As to conditions: Homo sapiens, OVCAR-5, 72 h; read-out: Cytotoxic IC50.
Description: as §1

For a further series, the system named is OVCAR-8. The series can be described thus: In vitro cytotoxicity (PrestoBlue). Format: cell-based. As to conditions: Homo sapiens, OVCAR-8, 72 h; read-out: Cytotoxic IC50.
Description: as §1

In another series the test system is PANC-1. Description: In vitro cytotoxicity (PrestoBlue). Format: cell-based. As to conditions: Homo sapiens, PANC-1, 72 h; read-out: Cytotoxic IC50.
Description: as §1

In the next series the test system is RXF 393. The series can be described thus: In vitro cytotoxicity (PrestoBlue). Type of series: cell-based. The following applies: Homo sapiens, RXF 393, 72 h; read-out: Cytotoxic IC50.
Description: as §1

Series [5] relates to SK-MEL-2. The series can be described thus: In vitro cytotoxicity (PrestoBlue). The following applies: Homo sapiens, SK-MEL-2, 72 h; read-out: Cytotoxic IC50. Type of series: cell-based.
Description: as §1

For a further series, the system named is SW-620. Description: In vitro cytotoxicity (PrestoBlue). Format: cell-based. As to conditions: Homo sapiens, SW-620, 72 h; read-out: Cytotoxic IC50.
Description: as §1

In a further series the test system is UO-31. The series can be described thus: In vitro cytotoxicity (PrestoBlue). Type of series: cell-based. The following applies: Homo sapiens, UO-31, 72 h; read-out: Cytotoxic IC50.
Description: as §1

The nature of series [6]: In vivo toxicity (dose-finding) studies. Also noted: species or system FVB mice. The following applies: for Mortality (%) / Survival: single iv. An excerpt: PyDau and LiPyDau dose-finding studies were done using 10 weeks old FVB mice, by single intravenous injections of different doses of the compounds (3 mouse/dose) via the tail vein. The status of the mice was monitored daily for signs of pain or discomfort. Mice were euthanized at 20% body weight loss or at a low score (1 or 2) on the Body Condition Scoring scale. Survival was followed for 30 days and the Maximum Tolerable Dose (MTD) was defined as the highest dose where 100% survival was observed.

Where two headings read alike, the source gives them in different places. A value given as a limit tells only on which side of the number the result lay.

The IC50 is the concentration at which inhibition is half-maximal. A word on the MTD: it is the largest dose that counted as tolerated.

In the case of `COc1cccc2c1C(=O)c1c(O)c3c(c(O)c1C2=O)C[C@@](O)(C(=O)CO)C[C@@H]3O[C@H]1C[C@H](N)[C@H](O)[C@H](C)O1` [DOX, doxorubicin], the “Response / overall survival” value with MES-SA/Dx5 xenografts is on record as “largely ineffective”. Moreover, the Tumor growth entry in [1] is reported as “failed to exert any effect on tumor growth”. For the same molecule, the 50% inhibitory concentration (IC50) in the series on SK-MEL-2 [2] was 237 nM; in the series on HCT-15, 1200 nM; in the series with DU-145 [3] it was 100 nM; in the series on MCF7 it was 15.6 nM; in the series on HS 578T, 188 nM.

Regarding `COc1cccc2c1C(=O)c1c(O)c3c(c(O)c1C2=O)C[C@@](O)(C(C)=O)C[C@@H]3O[C@H]1C[C@H]2[C@H](OC3CCCN32)[C@H](C)O1` (stereo partly shown) [PyDau, 2-deamino-2-pyrrolino-daunorubicin], the IC50 in the series on A498 stood at 13.3 nM; in the series on Bx-PC-3, 4.68 nM; in the series on CCRF-CEM it was 0.23 nM; in the series on DU-145 [4], 1.31 nM; with HCC-2998, 8.19 nM; in the series with HCT-116, 3 nM. Moreover, the concentration for half-maximal inhibition (IC50) is 0.9 nM in the series on HL-60(TB); 4.16 nM with HOP-62; 1.42 nM in the series on KM12; 1.84 nM with MALME-3M; 1.86 nM in the series on MDA-MB-435; 0.94 nM in the series on NCI-H522. The IC50 was 1.38 nM in the series on NCI/ADR-RES; 1.93 nM in the series with OVCAR-5; 1.19 nM with OVCAR-8; 1.77 nM in the series on PANC-1; 4.66 nM in the series on RXF 393; 3.55 nM in the series with SK-MEL-2 [5]. Besides, the concentration for half-maximal inhibition (IC50) with SW-620 came to 2.78 nM; with UO-31, 1.43 nM. The Lethality entry in series [6] (3, 2, 1 and 0.5 mg/kg) is listed as “lethal”. Also, the “Mortality (%)” value in [6] (PyDau dose 0.05 mg/kg) was determined as 0%; in series [6] (PyDau dose 0.1 mg/kg) it was 0%; in series [6] (PyDau dose 0.17 mg/kg), 0%; in [6] (PyDau dose 0.25 mg/kg), 0%; in [6] (PyDau dose 0.5 mg/kg) it was 100%; in [6] (PyDau dose 1 mg/kg), 100%. In addition, the “Mortality (%)” value in series [6] (PyDau dose 2 mg/kg) and in series [6] (PyDau dose 3 mg/kg) was 100% throughout. Further, the “Survival” value is reported as more than 30 days in [6] (PyDau dose 0.05 mg/kg); more than 30 days in [6] (PyDau dose 0.1 mg/kg); more than 30 days in [6] (PyDau dose 0.17 mg/kg); more than 30 days in series [6] (PyDau dose 0.25 mg/kg); 11 days in [6] (PyDau dose 0.5 mg/kg); 4 days in series [6] (PyDau dose 1 mg/kg). Besides, the “Survival” value in [6] (PyDau dose 2 mg/kg) and in series [6] (PyDau dose 3 mg/kg) was 2 days throughout. For the same molecule, the Safety window entry in [6] (dose-finding studies in mice) is given as “too narrow”. Besides, the maximum tolerated dose (MTD) at 30 days in series [6] (mouse, in vivo, single intravenous injection, FVB mice, highest dose with 100% survival over 30 days, read-out: Maximum Tolerable Dose (MTD)) came out at 0.25 mg/kg.
